These are literature values, as cited in patent US20110189299A1, “PHARMACEUTICAL COMPOSITION CONTAINING SURFACE-COATED MICROPARTICLES” (NITTO DENKO CORPORATION, priority 2008, published 2011).

`CN(C)CCc1c[nH]c2ccc(C[C@H]3COC(=O)N3)cc12` [Zolmitriptan]: the pKa was 9.5.
